Experimental findings from ChEMBL document CHEMBL1128020, “Synthesis and sar of 2h-1,2,4-benzothiadiazine-1,1-dioxide-3-carboxylic acid derivatives as novel potent glycine antagonists of the nmda receptor-channel complex” (Bioorg Med Chem Lett, 1994) are described below.

The term IC50 denotes the concentration that gives 50% inhibition.

SMILES strings stand for the structures.

Chain of Glutamate receptor 4 (P48058 whole entry): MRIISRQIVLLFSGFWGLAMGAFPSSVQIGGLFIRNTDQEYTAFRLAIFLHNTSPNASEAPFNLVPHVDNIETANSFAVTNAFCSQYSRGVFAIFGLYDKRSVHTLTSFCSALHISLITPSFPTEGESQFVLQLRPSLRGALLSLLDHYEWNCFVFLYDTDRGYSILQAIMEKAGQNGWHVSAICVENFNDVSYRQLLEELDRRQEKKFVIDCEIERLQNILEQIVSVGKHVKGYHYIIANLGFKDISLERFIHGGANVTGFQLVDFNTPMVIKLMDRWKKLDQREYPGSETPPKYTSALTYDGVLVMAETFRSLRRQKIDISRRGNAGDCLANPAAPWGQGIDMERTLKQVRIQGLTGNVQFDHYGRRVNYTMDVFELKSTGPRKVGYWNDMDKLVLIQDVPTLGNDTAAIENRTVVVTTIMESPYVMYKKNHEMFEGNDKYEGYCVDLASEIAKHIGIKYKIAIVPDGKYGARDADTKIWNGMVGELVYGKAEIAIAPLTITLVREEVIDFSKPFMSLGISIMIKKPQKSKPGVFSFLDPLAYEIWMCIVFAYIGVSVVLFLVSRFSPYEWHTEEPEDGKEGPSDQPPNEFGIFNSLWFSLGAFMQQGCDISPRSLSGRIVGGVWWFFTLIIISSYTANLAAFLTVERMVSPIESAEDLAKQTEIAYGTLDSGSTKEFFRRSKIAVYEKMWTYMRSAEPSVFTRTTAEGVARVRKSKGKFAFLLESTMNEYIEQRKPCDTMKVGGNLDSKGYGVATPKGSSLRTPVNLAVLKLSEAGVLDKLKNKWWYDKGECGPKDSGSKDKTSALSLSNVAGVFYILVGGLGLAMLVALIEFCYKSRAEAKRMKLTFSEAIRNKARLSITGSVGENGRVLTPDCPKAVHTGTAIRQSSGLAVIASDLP

One experiment concerns the target Glutamate receptor 4 (Homo sapiens, UniProt P48058). The experiment can be described thus: Binding affinity against AMPA receptor using [3H]AMPA as the radioligand.
Take `O=C(O)C1Nc2cc(Cl)cc(Cl)c2S(=O)(=O)N1Cc1cccc(Br)c1` (stereo not given): the IC50 was determined as 38000 nM.

Another experiment concerns the target Glutamate NMDA receptor. The experiment can be described thus: Binding affinity at the glycine binding site of the N-methyl-D-aspartate glutamate receptor in rat cortical membranes using [3H]dichlorokynurenate ([3H]DCKA) as radioligand. In kind it is cell membranes, Membrane.
Turning to `O=C(O)C1Nc2cc(Cl)cc(Cl)c2S(=O)(=O)N1Cc1ccc(C(F)(F)F)cc1` (stereo not given), the IC50 worked out at 92 nM. As to `O=C(O)c1cc(O)c2c(Cl)cc(Cl)cc2n1`, the 50% inhibitory concentration (IC50) worked out at 46 nM. The molecule `O=C(O)C1Nc2cc(Cl)cc(Cl)c2S(=O)(=O)N1Cc1cccc(I)c1` (stereo not given) showed an IC50 of 8 nM.

Molecule `CCOC(=O)C1Nc2cc(Cl)cc(Cl)c2S(=O)(=O)N1CCOc1ccccc1` (stereo not given) displayed an IC50 of 41 nM. Same read-out and setting: in the case of `CCOC(=O)C1Nc2cc(Cl)cc(Cl)c2S(=O)(=O)N1Cc1cccc(OC)c1` (stereo not given) it was 12 nM; in that of `CCOC(=O)C1Nc2cc(Cl)cc(Cl)c2S(=O)(=O)N1Cc1ccccc1F` (stereo not given), 26 nM; in that of `O=C(O)C1Nc2cc(Cl)cc(Cl)c2S(=O)(=O)N1Cc1cccc(Br)c1` (single isomer, unassigned; (-)), 4 nM. For the molecule `CCOC(=O)C1Nc2cc(Cl)cc(Cl)c2S(=O)(=O)N1Cc1cccc(C)c1` (stereo not given), the IC50 is 14 nM. `CCOC(=O)C1Nc2cc(Cl)cc(Cl)c2S(=O)(=O)N1CCSc1ccccc1` (stereo not given) registered an IC50 of 38 nM. On the same count and under the same terms, the value for `O=C(O)C1Nc2cc(Cl)cc(Cl)c2S(=O)(=O)N1CCCc1ccccc1` (stereo not given) was 33 nM; that for `O=C(O)C1Nc2cc(Cl)cc(Cl)c2S(=O)(=O)N1Cc1cccc(Br)c1` (stereo in doubt; (+)8k) was 1880 nM; that for `O=C(O)CCc1c(C(=O)O)[nH]c2cc(Cl)cc(Cl)c12` was 50 nM. Still for that read-out and setting: in the case of `CCOC(=O)C1Nc2cc(Cl)cc(Cl)c2S(=O)(=O)N1Cc1cccc(C#N)c1` (stereo not given) it was 17 nM; in that of `O=C(O)C1Nc2cc(Cl)cc(Cl)c2S(=O)(=O)N1CCc1ccccc1` (stereo not given), 90 nM. In turn, `O=C(O)C1Nc2cc(Cl)cc(Cl)c2S(=O)(=O)N1Cc1ccccc1` (stereo not given) came in with an IC50 of 48 nM. Turning to `O=C(Nc1ccccc1)N[C@H]1C[C@H](C(=O)O)Nc2cc(Cl)cc(Cl)c21` (single isomer, unassigned), the IC50 was determined as 26 nM. Molecule `CCOC(=O)C1Nc2cc(Cl)cc(Cl)c2S(=O)(=O)N1Cc1cccc(C(F)(F)F)c1` (stereo not given) showed an IC50 of 18 nM. On the same count and under the same terms, the value for `CCOC(=O)C1Nc2cc(Cl)cc(Cl)c2S(=O)(=O)N1Cc1cccc([N+](=O)[O-])c1` (stereo not given) was 12 nM. In turn, `CCOC(=O)C1Nc2cc(Cl)cc(Cl)c2S(=O)(=O)N1Cc1cccc(N)c1` (stereo not given) yielded an IC50 of 29 nM. Molecule `CCOC(=O)C1Nc2cc(Cl)cc(Cl)c2S(=O)(=O)N1Cc1ccccc1C` (stereo not given) registered an IC50 of 80 nM. `O=C(O)C1Nc2cc(Cl)cc(Cl)c2S(=O)(=O)N1Cc1cccc(F)c1` (stereo not given) came in with an IC50 of 13 nM. `O=C(O)C1Nc2cc(Cl)cc(Cl)c2S(=O)(=O)N1Cc1cccc(OC(F)(F)F)c1` (stereo not given) returned a 50% inhibitory concentration (IC50) of 20 nM. The same measure, in the same setting: the value for `CCOC(=O)C1Nc2cc(Cl)cc(Cl)c2S(=O)(=O)N1Cc1cccc(Oc2ccccc2)c1` (stereo not given) was 9 nM. For the molecule `O=C(O)C1Nc2cc(Cl)cc(Cl)c2S(=O)(=O)N1CCCCCc1ccccc1` (stereo not given), the IC50 was determined as 36 nM. For `CCOC(=O)C1Nc2cc(Cl)cc(Cl)c2S(=O)(=O)N1C` (stereo not given), the IC50 turned out to be 400 nM. As for `CCOC(=O)C1Nc2cc(Cl)cc(Cl)c2S(=O)(=O)N1Cc1ccc(F)cc1` (stereo not given), the IC50 was found to be 44 nM. As to `O=C(O)C1Nc2cc(Cl)cc(Cl)c2S(=O)(=O)N1CCCCc1ccccc1` (stereo not given), the IC50 was 77 nM. For `O=C(O)C1Nc2cc(Cl)cc(Cl)c2S(=O)(=O)N1CCS(=O)(=O)c1ccccc1` (stereo not given), the IC50 is 70 nM. In turn, `O=C(O)CN1C(C(=O)O)Nc2cc(Cl)cc(Cl)c2S1(=O)=O` (stereo not given) returned an IC50 of 9500 nM. With `CCOC(=O)C1Nc2cc(Cl)cc(Cl)c2S(=O)(=O)N1CC(=O)c1ccccc1` (stereo not given), the IC50 came out at 22 nM. In the case of `CCOC(=O)C1Nc2cc(Cl)cc(Cl)c2S(=O)(=O)N1Cc1cccc(-c2ccccc2)c1` (stereo not given), the IC50 is 20 nM. The molecule `O=C(O)C1Nc2cc(Cl)cc(Cl)c2S(=O)(=O)N1Cc1ccccc1C(F)(F)F` (stereo not given) had an IC50 of 100 nM. Molecule `O=C(O)C1Nc2cc(Cl)cc(Cl)c2S(=O)(=O)N1c1ccccc1` (stereo not given) had an IC50 of 2600 nM.

Molecule `CCOC(=O)C1Nc2cc(Cl)cc(Cl)c2S(=O)(=O)N1Cc1ccc(C)cc1` (stereo not given) came in with an IC50 of 45 nM. `CCOC(=O)C1Nc2cc(Cl)cc(Cl)c2S(=O)(=O)N1Cc1ccc(Cl)cc1` (stereo not given) displayed an IC50 of 20 nM. As for `CCOC(=O)C1Nc2cc(Cl)cc(Cl)c2S(=O)(=O)N1Cc1ccccc1Cl` (stereo not given), the IC50 was 48 nM. `CCOC(=O)C1Nc2cc(Cl)cc(Cl)c2S(=O)(=O)N1Cc1cccc(Cl)c1` (stereo not given) had an IC50 of 11 nM. The molecule `CCOC(=O)C1Nc2cc(Cl)cc(Cl)c2S(=O)(=O)N1Cc1ccc(OC)cc1` (stereo not given) came in with an IC50 of 40 nM. Consider `COc1ccccc1CN1C(C(=O)O)Nc2cc(Cl)cc(Cl)c2S1(=O)=O` (stereo not given), for which the IC50 stood at 21 nM.
